Reference: patent publication US20050249818A1, “Polycationic antimicrobial therapeutic” (priority 2004, published 2005)

Tested on: C. albicans #5
Type: in vivo
Procedure: Five-week-old female CD-1 mice were purchased from Charles River Laboratories. Mice were placed in cages in groups of five. To immunosuppress the mice and allow for the establishment of mucosal infection, 5-FU was given intravenously once every 7 days, starting on day-2. Antibiotics were given in the drinking water in autoclaved bottles to reduce potential confounding secondary bacterial infections. Gentamycin at 0.2 mg/ml, clindamycin at 1 mg/ml, vancomycin 1 mg/ml were added to sterile drinking water. Bottles and drinking water were changed every day. Imipenem is given at 5 mg/mouse (IP, QD). Antibiotics were begun on day-3.
C. albicans #5 was transferred from storage at −80° C. and streaked for isolation on Sabouraud Dextrose Agar plates with chloramphenicol. The plates were incubated at 35° C. for 48 hours. The organisms were inoculated in sterile bottles each containing 100 ml of SAAMF broth and incubated for 48 hours at 35° C. on a gyratory shaker. C. albicans was harvested by transferring the broth culture to sterile 50 ml centrifuge tubes and centrifuged for 15 minutes at 2000 RPM. The cells were washed once with saline and then suspended in saline. The cells were counted using a hemacytometer. Inoculum dilutions were made in sterile water. The final inoculum was 2×10^8 cells/ml of drinking sterile water plus antibiotics. The inoculum viability determined by plating serial dilutions on SDA plates with chloramphenicol was 1.85×10^8 cells per ml. Plates were incubated overnight at 35° C. for verification count of the inoculum.
In the morning before the preparation of the inoculum the drinking bottles were removed 8 hours prior to replacement with the inoculum suspension of C. albicans. The mice were allowed to drink from this suspension for 24 hours at which time the inoculum suspension was removed and replaced with drinking water containing antibiotics (day 0).
Beginning on day 4 postinfection, mice were untreated or treated with either, Surfacine D™ diluent (undiluted), 3% Surfacine D, PEG dilutent or 1% clotrimazole.
PEG 400, 1% clotrimazole in PEG400, or given no treatment. Treatments were done for 10 consecutive days and were given twice daily. Treatments were done by dipping a sterile calcium alginate swab into the solution and then swabbing the oral cavity of the mouse to ensure coverage with the solution. It was not necessary to anesthetize the animals to perform the treatments. Treatment ended on day 13 postinfection.
On day 15 postinfection all surviving mice were euthanatized using CO2 gas. The tongue of each mouse was swabbed with sterile calcium alginate swab and the swab placed in 0.4 ml of 1×PBS. The swab in PBS was vigorously mixed with a vortex mixer to dissolve the alginate and release the organisms into suspension, and two 10-fold dilutions were made and plated in duplicate on SDA without chloramphenicol.
Survival was analyzed using a log rank test and comparative CFU between groups was analyzed using a Mann-Whitney U test. A log10 value of 6.5 was assigned as CFU for data points missing due to the death of the animal. This value is arbitrarily set to be higher than any burden recovered from surviving mice and assures that death is considered as a worse outcome than is survival regardless of burden.

SMILES: Clc1ccccc1C(c1ccccc1)(c1ccccc1)n1ccnc1 [1% clotrimazole, clotrimazole]
- reduction in CFU in comparison with the untreated controls (CFU recovered from the tongue, day 15 postinfection): ~30 fold
- ranking among the treatments (in vivo): most effective of the treatments
- behavioral observations during treatments (in vivo, po): did not exhibit these behaviors or symptoms
- deaths (mice, oral swab twice daily for 10 days, to day 15 postinfection): one
- gross pathological appearance of the tongue mucosal surface at necropsy (surviving mice, day 15 postinfection): normal mucosal surface appearance
